Literature values as cited in patent US20050281872A1, “Enhanced compliance antiviral medicaments and methods of manufacture and use” (priority 2004, published 2005).

Key:
[1] = patients receiving ribavirin antiviral therapy
[2] = taking antacids containing magnesium, aluminum, and simethicone
[3] = ribavirin powder

Compound | patients requiring a reduction in dose or discontinuation of therapy because of side effects [1] | solubility in alcohol (alcohol) | solubility in water (water) | decrease in available ribavirin [2] | dissolution time in water [3] | effectiveness in treating hepatitis C (hepatitis C virus (HCV); ribavirin alone, without interferon) | patients who responded positively (hepatitis C virus (HCV); high dose of interferon for six months)
NC(=O)c1ncn([C@@H]2O[C@H](CO)[C@@H](O)[C@H]2O)n1 [ribavirin] | up to 20% | only sparingly soluble | freely soluble | 14% | almost instantaneous | not effective | 
interferon |  |  |  |  |  |  | nearly half
